Consider 10 molecules from ChEMBL document CHEMBL1201862, “PubChem BioAssay data set” (2004).

Each structure is given as a SMILES string.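 Exposure lasted 48 hours, with cells grown in 96-well plates and compounds tested at five concentrations. GI50: concentration for 50% inhibition of growth.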 The source made the active and inactive calls. Rule as the data show it: active = GI50 up to about 1.1 µM and inactive = higher. Some results are limits rather than exact numbers.

Among the test systems are A498; ACHN; HCC 2998; HCT-15; HL-60; HOP-62; HT-29; IGROV-1; K562; LOX IMVI; MDA-MB-435; MOLT-4; NCI-H522; OVCAR-4; RXF 393; SF-295; SK-OV-3; SN12C; SNB-19; SNB-75.
What all share (experiment): NCI anticancer screen, dose series, 48 h

Regarding `CC[C@@H]1CN(C)[C@H]2Cc3c([nH]c4ccccc34)C(=O)C[C@H]1C2C(=O)OC` (stereo partly drawn), the GI50 was > 100 µM (inactive) with A498; > 100 µM (inactive) in the experiment with ACHN; > 100 µM (inactive) with HCC 2998; above 100 µM in the experiment on HCT-15; > 89.3 µM (inactive) in the experiment with HL-60; > 72.8 µM (inactive) in the experiment with HOP-62. Further, the GI50 was > 100 µM (inactive) with HT-29; > 100 µM (inactive) with IGROV-1; > 100 µM (inactive) with K562; > 100 µM (inactive) in the experiment on LOX IMVI; > 100 µM (inactive) with MDA-MB-435; > 93.8 µM (inactive) with MOLT-4. In addition, the GI50 was > 100 µM (inactive) in the experiment on NCI-H522; > 31.6 µM (inactive) in the experiment with OVCAR-4; > 77.8 µM (inactive) with RXF 393; > 54.2 µM (inactive) in the experiment with SF-295; > 100 µM (inactive) in the experiment with SK-OV-3; > 100 µM (inactive) with SN12C. The results for the GI50 in the experiment on SNB-19 and in the experiment with SNB-75 were > 100 µM (inactive) and > 91.4 µM (inactive), respectively.
Turning to `CC(C)CC(NC(=O)C(CCI)Cc1ccccc1)C(=O)Nc1ccccc1` (stereo not drawn), the GI50 was > 100 µM (inactive) in the experiment with A498; 53.5 µM (inactive) with ACHN; > 100 µM (inactive) with HCC 2998; 49.9 µM with HCT-15; 18 µM (inactive) in the experiment on HL-60; 51.1 µM (inactive) in the experiment on IGROV-1. Also, the GI50 in the experiment with K562 is 44.6 µM (inactive); in the experiment on LOX IMVI, 33.3 µM (inactive); with MDA-MB-435, 58.5 µM (inactive); with MOLT-4, 26.7 µM (inactive); with NCI-H522 it was 27.7 µM (inactive); in the experiment on OVCAR-4 it was > 100 µM (inactive). Further, the GI50 was > 100 µM (inactive) with RXF 393; > 100 µM (inactive) in the experiment on SF-295; > 100 µM (inactive) in the experiment with SK-OV-3; > 100 µM (inactive) in the experiment with SN12C; 98.2 µM (inactive) in the experiment on SNB-19; 93.8 µM (inactive) in the experiment on SNB-75.
With `O=C(O)C(Br)C(Br)C(=O)O` (stereo not drawn), the GI50 is > 100 µM (inactive) in the experiment on A498; > 100 µM (inactive) in the experiment on ACHN; > 100 µM (inactive) with HCC 2998; above 100 µM with HCT-15; > 100 µM (inactive) with HL-60; > 100 µM (inactive) in the experiment on HOP-62. Also, the GI50 in the experiment on HT-29, in the experiment on IGROV-1, in the experiment with K562, in the experiment on LOX IMVI, in the experiment on MDA-MB-435 and with NCI-H522 was > 100 µM (inactive) each time. For the same molecule, the GI50 in the experiment on OVCAR-4, in the experiment on RXF 393, in the experiment with SF-295, with SK-OV-3, in the experiment with SN12C and in the experiment with SNB-19 was > 100 µM (inactive) in each case. For the same molecule, the GI50 in the experiment with SNB-75 is > 100 µM (inactive).
As to `CC(C)(C)c1cc2c(O)c(c1)Cc1cc(C(C#N)(Cc3ccc4ccccc4c3)Cc3ccc4ccccc4c3)cc(c1O)Cc1cc(C(C)(C)C)cc(c1O)Cc1cc(C(C#N)(Cc3ccc4ccccc4c3)Cc3ccc4ccccc4c3)cc(c1O)C2`, the GI50 with A498 was > 100 µM (inactive); in the experiment with ACHN it was > 100 µM (inactive); with HCC 2998 it was > 100 µM (inactive); in the experiment with HCT-15, above 100 µM; in the experiment with HL-60, > 100 µM (inactive); with HOP-62, > 100 µM (inactive). Further, the GI50 with HT-29, in the experiment with IGROV-1, in the experiment with K562, in the experiment on LOX IMVI, in the experiment with MDA-MB-435 and in the experiment on MOLT-4 was > 100 µM (inactive) in each case. The GI50 in the experiment on NCI-H522, in the experiment on OVCAR-4, in the experiment on RXF 393, in the experiment with SF-295, with SK-OV-3 and with SN12C was > 100 µM (inactive) throughout. Also, the GI50 in the experiment on SNB-19 and with SNB-75 was > 100 µM (inactive) throughout.
Turning to `CN(CCCNC(=O)c1n[nH]c2c1ccc1ccccc12)CCCNC(=O)c1n[nH]c2c1ccc1ccccc12`, the GI50 was 17.8 µM (inactive) with A498; 17.6 µM (inactive) in the experiment with ACHN; 1.9 µM (inactive) in the experiment with HCC 2998; 17 µM in the experiment with HCT-15; 1.67 µM (inactive) with HL-60; 16.8 µM (inactive) in the experiment with HOP-62. The GI50 was 14.6 µM (inactive) in the experiment with HT-29; 16.5 µM (inactive) with IGROV-1; 12.5 µM (inactive) with LOX IMVI; 2.62 µM (inactive) with MDA-MB-435; 10.4 µM (inactive) in the experiment with MOLT-4; 16.8 µM (inactive) in the experiment on NCI-H522. Besides, the GI50 was 17.3 µM (inactive) in the experiment on OVCAR-4; 14.4 µM (inactive) in the experiment with RXF 393; 17.3 µM (inactive) in the experiment with SF-295; 18.1 µM (inactive) in the experiment with SK-OV-3; 16.3 µM (inactive) with SN12C; 18.8 µM (inactive) in the experiment on SNB-19. In the experiment on SNB-75, the GI50 was 16.3 µM (inactive).
In the case of `Nc1c(C(=O)c2ccc(Cl)cc2)[nH]c(Nc2ccc(Cl)cc2)c1C(=S)Nc1ccccc1`, the GI50 is 12.7 µM (inactive) with A498; 2.21 µM (inactive) with ACHN; 2.74 µM (inactive) in the experiment with HCC 2998; 4.01 µM with HCT-15; 49.5 µM (inactive) with HL-60; 5.65 µM (inactive) in the experiment on HOP-62. Moreover, the GI50 in the experiment on HT-29 was 4.99 µM (inactive); in the experiment on IGROV-1 it was 4.15 µM (inactive); in the experiment on K562, 3.29 µM (inactive); with LOX IMVI, 3.64 µM (inactive); in the experiment with MDA-MB-435 it was 7.14 µM (inactive); with MOLT-4, 9.44 µM (inactive). Besides, the GI50 in the experiment with NCI-H522 was 4.83 µM (inactive); in the experiment on OVCAR-4, 2.08 µM (inactive); in the experiment with RXF 393, 2.7 µM (inactive); in the experiment on SF-295 it was 2.38 µM (inactive); in the experiment with SK-OV-3 it was 6.52 µM (inactive); with SN12C, 7.71 µM (inactive). Moreover, the values for the GI50 in the experiment on SNB-19 and in the experiment on SNB-75 were 4.36 µM (inactive) and 3 µM (inactive), respectively.
As to `[O-][S+]1SC(=S)C2C=CC=NC21` (stereo not drawn), the GI50 is 27.6 µM (inactive) with A498; 18.1 µM (inactive) in the experiment with ACHN; 15.5 µM (inactive) with HCC 2998; 17.3 µM in the experiment with HCT-15; > 100 µM (inactive) in the experiment on HL-60; 16.1 µM (inactive) in the experiment with HT-29. In addition, the GI50 was 20.1 µM (inactive) with IGROV-1; 20.9 µM (inactive) in the experiment with K562; 14.9 µM (inactive) in the experiment with LOX IMVI; > 100 µM (inactive) with MDA-MB-435; 16.4 µM (inactive) in the experiment with MOLT-4; 14.3 µM (inactive) in the experiment on NCI-H522. Also, the GI50 with OVCAR-4 was > 100 µM (inactive); in the experiment with RXF 393, 18.3 µM (inactive); in the experiment with SF-295, 22.4 µM (inactive); in the experiment on SK-OV-3, 32.6 µM (inactive); with SN12C, 14.8 µM (inactive); in the experiment on SNB-19 it was 26.1 µM (inactive). The GI50 in the experiment on SNB-75 is 18.7 µM (inactive).
With `O=C1O/C(=C(/Cl)c2cccc3ccccc23)c2ccccc21`, the GI50 is > 100 µM (inactive) in the experiment on A498; > 100 µM (inactive) in the experiment with HCC 2998; above 100 µM with HCT-15; > 100 µM (inactive) in the experiment with HL-60; 46.3 µM (inactive) with HOP-62; > 100 µM (inactive) with HT-29. For the same molecule, the GI50 was > 100 µM (inactive) in the experiment with IGROV-1; > 100 µM (inactive) in the experiment with K562; > 100 µM (inactive) with MDA-MB-435; > 100 µM (inactive) with MOLT-4; 52.1 µM (inactive) with NCI-H522; > 100 µM (inactive) in the experiment with OVCAR-4. Moreover, the GI50 was > 100 µM (inactive) with RXF 393; 47 µM (inactive) in the experiment with SF-295; > 100 µM (inactive) in the experiment with SK-OV-3; > 100 µM (inactive) in the experiment with SN12C; > 100 µM (inactive) in the experiment with SNB-19; 22.2 µM (inactive) in the experiment on SNB-75.
In the case of `CC(=O)Oc1ccc2c(c1)CC[C@@H]1C2[C@@H](O[N+](=O)[O-])C[C@@]2(C)C1CC[C@@H]2O` (stereo partly drawn), the GI50 in the experiment on A498 is 31.2 µM (inactive); in the experiment with ACHN it was 61.1 µM (inactive); in the experiment with HCC 2998 it was 10.6 µM (inactive); with HCT-15 it was 28.9 µM; in the experiment with HL-60, 9.2 µM (inactive); with HOP-62, 17.1 µM (inactive). The GI50 in the experiment with HT-29 was 30.8 µM (inactive); in the experiment on IGROV-1, 55.3 µM (inactive); in the experiment on K562, 11.9 µM (inactive); with LOX IMVI it was 27.7 µM (inactive); in the experiment on MDA-MB-435, 7.31 µM (inactive); in the experiment on MOLT-4, 24.5 µM (inactive). Also, the GI50 in the experiment with NCI-H522 was 21.1 µM (inactive); in the experiment on OVCAR-4, 52.1 µM (inactive); in the experiment on RXF 393 it was 38.7 µM (inactive); in the experiment with SF-295, 35.5 µM (inactive); in the experiment with SK-OV-3 it was 62.5 µM (inactive); with SN12C, 34.5 µM (inactive). Further, the GI50 in the experiment on SNB-19 is 35.6 µM (inactive); in the experiment with SNB-75, 45.7 µM (inactive).
With `Cc1c2cc[n+](C)cc2c(C)c2c1[nH]c1ccc(Cl)cc12`, the GI50 in the experiment on A498 was 0.282 µM (active); in the experiment with ACHN it was 3.78 µM (inactive); with HCC 2998, 1.63 µM (inactive); in the experiment on HCT-15 it was 5.87 µM; in the experiment with HL-60, 1.94 µM (inactive); in the experiment on HOP-62, 0.631 µM (active). In addition, the GI50 in the experiment with HT-29 was 3.34 µM (inactive); in the experiment on IGROV-1, 1.02 µM (active); in the experiment on K562, 2.21 µM (inactive); in the experiment on LOX IMVI, 4.67 µM (inactive); in the experiment on MDA-MB-435, 5.98 µM (inactive); in the experiment on MOLT-4 it was 2.31 µM (inactive). The GI50 is 0.617 µM (active) with NCI-H522; 3.28 µM (inactive) in the experiment on OVCAR-4; 1.18 µM (inactive) in the experiment with RXF 393; 0.374 µM (active) in the experiment on SF-295; 1.2 µM (inactive) with SK-OV-3; 0.214 µM (active) in the experiment with SN12C. Also, the GI50 with SNB-19 is 0.274 µM (active); with SNB-75, 0.242 µM (active).
